# Marks after values point to notes of the source that are not given here.
# Assay: Antimicrobial residue concentration and depletion in blood (serum) of treated pigs within the withdrawal period (LC-MS/MS)
# Format: in vivo
# Description: To obtain samples containing antimicrobial compounds administered in vivo, 93 piglets (62 female, 31 male) with an average weight of 43.00 ± 12.79 kg were provided at treatment onset. These piglets were untreated animals that remained on the premises of the Faculty of Veterinary Sciences at the University of Zaragoza (Zaragoza, Spain) 40 days before administration of the compounds. Both during the acclimatization and withdrawal periods, animals were fed ad libitum with a special mixed feed that was free of antibiotics ([…], Spain), and water was provided from a separated, controlled water circuit. Piglets were raised in separate pens depending on the antibiotic administrated. After administration, animals were slaughtered at preset intervals within the withdrawal period in order to obtain samples containing different antimicrobial concentrations above and below the MRLs for muscle. Figure S1 indicates the slaughter days and the withdrawal periods set by the manufacturer for each antimicrobial compound administered. Between one and three piglets were slaughtered on the same day post-administration. The day of slaughter was calculated from the first day after the last antimicrobial treatment dose. […] Apart from samples containing antimicrobial compounds administered in vivo, and as a part of the sample bank, 15 of the 93 piglets were slaughtered after the acclimatization period and before treatment onset. Animals were stunned and slaughtered following the guidelines established by European Council Regulation (EC) No. 1099/2009 [39] regarding the protection of animals at the time of slaughter or killing. A penetrative captive bolt gun was used to stun the pigs, positioning it firmly against the skin, in the middle of the forehead, 2 cm above the line of the eyes, aiming towards the tail. This was followed by complete exsanguination carried out by incision in the jugular furrow at the base of the neck to sever all the major blood vessels arising from the heart. The samples obtained from them were used as blank samples for analysis. Blood was collected not only from slaughtered animals, but also from living animals on each day of slaughter. […] For quinolones in blood serum samples, a LC-MS/MS method was set up using a SCIEX Exion LC coupled to TripleQuad 6500+ triple quadrupole detector equipped with an Acquity Ultra Performance Liquid Chromatography Ethylene Bridged Hybrid (UPLC BEH) C18 (1.7 μm, 2.1 × 100 mm) column. Mobile phase consisted of eluent A: 0.1% formic acid in water, and eluent B: 0.1% formic acid in acetonitrile at a flow rate of 0.4 mL/min. […] Injected volume was 5 μL. Analytes were detected using positive electrospray ionization (ESI+) in multiple reaction monitoring (MRM) mode, and two transitions were monitored for each compound of interest (Table S4). […] The same mobile phase and gradient conditions as in SCIEX instruments were applied. […] Two ESI+ MRM transitions were monitored for each compound (Table S5). […] Results were represented as the mean ± standard deviation using the PRISM program (GraphPad Software, Inc., San Diego, USA). The rates of elimination (λz) of antibiotics from muscle and blood were determined by regression analysis. The corresponding half-lives of elimination were calculated according to the following equation: Half-life of elimination.
# [1] = over the sample bank of treated piglets
smiles,measurement,setting,value
"COc1ccc(NS(=O)(=O)c2ccc(N)cc2)nn1 [Sulfamethoxypyridazine, sulfamethoxypyridazine]",half-life,"both sexes, intramuscular, pig blood serum, T1/2=Ln(2)/λz, read-out: T1/2 half-life of elimination (BLOOD) (converted)",13.2 h
same,Maximum concentration value in Blood,[1],4098.00 ± 201.34 µg/kg
same,Minimum concentration value in Blood,[1],23.67 ± 20.23 µg/kg
same,Slope (BLOOD),"pig blood serum, regression of concentration over the withdrawal period, deep intramuscular treatment",−0.5496 ± 0.02589 ^a

# — publication PMC7235904, “Is Blood a Good Indicator for Detecting Antimicrobials in Meat? Evidence for the Development of In Vivo Surveillance Methods” (Antibiotics, 2020)
